Common to all, as to assay: ERK1/2 phosphorylation
Format in all cases: cell-based

In one assay the target is T1, hCTR I279A (Homo sapiens, UniProt P30988, I279A).
T1 construct: expressed in transfected cells
T1 sequence (P30988 25-474 I279A): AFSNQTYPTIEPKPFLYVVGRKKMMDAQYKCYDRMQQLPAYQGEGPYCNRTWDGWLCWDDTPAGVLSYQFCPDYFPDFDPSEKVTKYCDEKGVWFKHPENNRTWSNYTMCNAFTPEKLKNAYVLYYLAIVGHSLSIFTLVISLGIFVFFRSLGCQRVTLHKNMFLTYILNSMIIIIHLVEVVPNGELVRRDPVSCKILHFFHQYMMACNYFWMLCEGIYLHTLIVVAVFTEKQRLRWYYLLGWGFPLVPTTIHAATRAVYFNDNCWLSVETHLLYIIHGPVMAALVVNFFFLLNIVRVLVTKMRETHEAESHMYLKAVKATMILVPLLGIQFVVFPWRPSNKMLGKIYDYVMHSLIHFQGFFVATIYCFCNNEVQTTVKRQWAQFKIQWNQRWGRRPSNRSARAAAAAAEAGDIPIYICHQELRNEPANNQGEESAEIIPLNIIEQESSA
Conditions: CV1-FlpIn cells, mean ± S.E.M.; for Emax: pERK maximal response. The method in brief: (§1)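 Overnight-plated cells at 2.5 × 10^4/well are stimulated, and ERK1/2 phosphorylation is referenced to the 10% FBS response at 6 min before logistic curve fitting.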

In a further assay the target is T2, hCTR F359A (Homo sapiens, UniProt P30988, F359A).
T2 construct: expressed in transfected cells
T2 sequence (P30988 25-474 F359A): T1 sequence (P30988 25-474 I279A) with A255I, F335A
The settings on record: for Emax: read-out: Emax (% WT); for EC50: pERK, hCTR F359A, CV1-FlpIn cells, three-parameter logistic fit, mean ± S.E.M. The procedure, abridged:
as §1

A further assay concerns the target T3, hCTR Y374A (Homo sapiens, UniProt P30988, Y374A).
T3 construct: c-Myc (N); expressed in transfected cells
T3 sequence (P30988 25-474 Y374A): T1 sequence (P30988 25-474 I279A) with A255I, Y350A
Conditions: CV1-FlpIn cells, mean ± S.E.M.; for Emax: pERK maximal response; for EC50: pERK, three-parameter logistic fit. The procedure, abridged: as §1

The target of the next assay is T4, hCTR L298A (Homo sapiens, UniProt P30988, L298A).
T4 construct: c-Myc (N); expressed in transfected cells
T4 sequence (P30988 25-474 L298A): T1 sequence (P30988 25-474 I279A) with A255I, L274A
The settings on record: CV1-FlpIn cells, mean ± S.E.M.; for Emax: pERK maximal response; for EC50: pERK, three-parameter logistic fit. The method in brief: as §1

The target of a further assay is T5, hCTR E294A (Homo sapiens, UniProt P30988, E294A).
T5 construct: c-Myc (N); expressed in transfected cells
T5 sequence (P30988 25-474 E294A): T1 sequence (P30988 25-474 I279A) with A255I, E270A
The settings on record: for Emax: read-out: Emax (% WT); for EC50: pERK, three-parameter logistic fit. The method in brief:
as §1

The mark [1] stands for this setting: pERK maximal response, hCTR E294A, CV1-FlpIn cells, mean ± S.E.M.
The mark [2] stands for this setting: hCTR E294A, CV1-FlpIn cells, mean ± S.E.M.

Molecules are shown by their SMILES. Positions count from the first letter of the chain named. Read-outs that look alike come from different tables or passages of the source. Where a SMILES comes first, the peptide text is derived from it. Bridges are numbered along the chain shown (N, C = ends).

The values below come from article PMC5908784, “Extracellular loops 2 and 3 of the calcitonin receptor selectively modify agonist binding and efficacy” (Biochemical Pharmacology, 2018).

What is called Emax is the greatest response seen or fitted, relative to the assay's reference. For the molecule `CC(C)C[C@H](NC(=O)[C@H](CCCCN)NC(=O)CNC(=O)[C@H](CC(C)C)NC(=O)[C@@H](NC(=O)[C@@H]1CSSC[C@H](N)C(=O)N[C@@H](CO)C(=O)N[C@@H](CC(N)=O)C(=O)N[C@@H](CC(C)C)C(=O)N[C@@H](CO)C(=O)N[C@@H]([C@@H](C)O)C(=O)N1)C(C)C)C(=O)N[C@@H](CO)C(=O)N[C@@H](CCC(N)=O)C(=O)N[C@@H](CCC(=O)O)C(=O)N[C@@H](CC(C)C)C(=O)N[C@@H](Cc1c[nH]cn1)C(=O)N[C@@H](CCCCN)C(=O)N[C@@H](CC(C)C)C(=O)N[C@@H](CCC(N)=O)C(=O)N[C@H](C(=O)N[C@@H](Cc1ccc(O)cc1)C(=O)N1CCC[C@H]1C(=O)N[C@@H](CCCNC(=N)N)C(=O)N[C@H](C(=O)N[C@@H](CC(N)=O)C(=O)N[C@H](C(=O)NCC(=O)N[C@@H](CO)C(=O)NCC(=O)N[C@H](C(=O)N1CCC[C@H]1C(N)=O)[C@@H](C)O)[C@@H](C)O)[C@@H](C)O)[C@@H](C)O` [sCT], the Emax at hCTR I279A is 126 ± 5%; on hCTR F359A, 186 ± 7%; on hCTR Y374A, 99 ± 5%; on hCTR L298A, 85 ± 6%; on hCTR E294A it was 126 ± 7%.

What is called EC50 is the midpoint of the concentration-response curve. As to `CSCC[C@H](NC(=O)CNC(=O)[C@H](CO)NC(=O)[C@H](Cc1ccccc1)NC(=O)[C@H](CCCNC(=N)N)NC(=O)[C@H](Cc1c[nH]cn1)NC(=O)[C@H](Cc1ccccc1)NC(=O)[C@H](CC(N)=O)NC(=O)[C@H](CC(N)=O)NC(=O)[C@H](CC(C)C)NC(=O)[C@H](CC(N)=O)NC(=O)[C@H](CCCNC(=N)N)NC(=O)[C@H](Cc1c[nH]c2ccccc12)NC(=O)[C@H](Cc1ccc(O)cc1)NC(=O)[C@H](C)NC(=O)[C@H](CO)NC(=O)[C@H](CC(C)C)NC(=O)[C@@H](NC(=O)[C@@H]1CSSC[C@H](N)C(=O)N[C@@H](CO)C(=O)N[C@@H](CC(N)=O)C(=O)N[C@@H](CC(C)C)C(=O)N[C@@H](CO)C(=O)N[C@@H]([C@@H](C)O)C(=O)N1)C(C)C)C(=O)NCC(=O)N[C@@H](Cc1ccccc1)C(=O)NCC(=O)N1CCC[C@H]1C(=O)N[C@@H](CCC(=O)O)C(=O)N[C@H](C(=O)N1CCC[C@H]1C(N)=O)[C@@H](C)O` [pCT] (H-CSNLSTCVLSAYWRNLNNFHRFSGMGFGPETP-NH2; disulfide 1-7), the Emax turned out to be 122 ± 7% at hCTR I279A, 105 ± 8% at hCTR Y374A, 73 ± 6% on hCTR L298A and 115 ± 9% on hCTR E294A (setting [1]). The EC50 was 2.19 nM on hCTR I279A (pERK, three-parameter logistic fit); 6.31 nM at hCTR F359A; 2.69 nM at hCTR Y374A; 1.1 nM on hCTR L298A; 2 nM on hCTR E294A (setting [2]).

As for `CC(C)C[C@H](NC(=O)[C@H](CC(N)=O)NC(=O)[C@H](CC(N)=O)NC(=O)[C@H](CO)NC(=O)[C@H](CO)NC(=O)[C@H](CCCNC(=N)N)NC(=O)[C@@H](NC(=O)[C@H](CC(C)C)NC(=O)[C@H](Cc1ccccc1)NC(=O)[C@H](CC(N)=O)NC(=O)[C@H](C)NC(=O)[C@H](CC(C)C)NC(=O)[C@H](CCCNC(=N)N)NC(=O)[C@H](CCC(N)=O)NC(=O)[C@@H](NC(=O)[C@H](C)NC(=O)[C@@H]1CSSC[C@H](NC(=O)[C@@H](N)CCCCN)C(=O)N[C@@H](CC(N)=O)C(=O)N[C@@H]([C@@H](C)O)C(=O)N[C@@H](C)C(=O)N[C@@H]([C@@H](C)O)C(=O)N1)[C@@H](C)O)C(C)C)C(=O)NCC(=O)N1CCC[C@H]1C(=O)N[C@H](C(=O)N[C@@H](CC(C)C)C(=O)N1CCC[C@H]1C(=O)N1CCC[C@H]1C(=O)N[C@H](C(=O)N[C@@H](CC(N)=O)C(=O)N[C@H](C(=O)NCC(=O)N[C@@H](CO)C(=O)N[C@@H](CC(N)=O)C(=O)N[C@H](C(=O)N[C@@H](Cc1ccc(O)cc1)C(N)=O)[C@@H](C)O)C(C)C)[C@@H](C)O)C(C)C` [rAmy], the maximum response (Emax) at hCTR I279A was found to be 88 ± 9%; on hCTR F359A, 58 ± 11%; at hCTR Y374A, 61 ± 5%; at hCTR L298A it was 82 ± 7%; at hCTR E294A, 72 ± 7%.

As to `CC(C)C[C@H](NC(=O)CNC(=O)[C@H](C)NC(=O)[C@H](CC(C)C)NC(=O)[C@H](CCCNC(=N)N)NC(=O)[C@H](Cc1cnc[nH]1)NC(=O)[C@@H](NC(=O)[C@@H](NC(=O)[C@@H]1CSSC[C@H](NC(=O)[C@H](C)N)C(=O)N[C@@H](CC(=O)O)C(=O)N[C@@H]([C@@H](C)O)C(=O)N[C@@H](C)C(=O)N[C@@H]([C@@H](C)O)C(=O)N1)C(C)C)[C@@H](C)O)C(=O)N[C@@H](CC(C)C)C(=O)N[C@@H](CO)C(=O)N[C@@H](CCCNC(=N)N)C(=O)N[C@@H](CO)C(=O)NCC(=O)NCC(=O)N[C@H](C(=O)N[C@H](C(=O)N[C@@H](CCCCN)C(=O)N[C@@H](CC(N)=O)C(=O)N[C@@H](CC(N)=O)C(=O)N[C@@H](Cc1ccccc1)C(=O)N[C@H](C(=O)N1CCC[C@H]1C(=O)N[C@H](C(=O)N[C@@H](CC(N)=O)C(=O)N[C@H](C(=O)NCC(=O)N[C@@H](CO)C(=O)N[C@@H](CCCCN)C(=O)N[C@@H](C)C(=O)N[C@@H](Cc1ccccc1)C(N)=O)C(C)C)[C@@H](C)O)C(C)C)C(C)C)C(C)C` [hαCGRP], the Emax at hCTR I279A came to 97 ± 11%; at hCTR Y374A, 49 ± 8%; on hCTR L298A, 58 ± 8%; at hCTR E294A (setting [1]) it was 66 ± 15%. Besides, the EC50 is 6.31 nM at hCTR F359A, 61.7 nM on hCTR Y374A, 75.9 nM on hCTR L298A and 123 nM on hCTR E294A (setting [2]).
